{"source": "patent US8906966B2", "about": "“Medicaments containing panthenol” (priority 2006, dated 2014)", "format_in_all_cases": "in vivo, human", "key": {"inflamed joint": {"system": "inflamed joint", "assay": "Patient response to a program of injections into or outside the inflamed joint (description)", "description": "In some embodiments, a typical dose is an aqueous solution (about 2 milliliters) containing about 500 mg of panthenol (e.g., dexpanthenol) or an aqueous solution (about 4 milliliters) containing about 1000 mg of panthenol (e.g., dexpanthenol). Lower doses can also be used (e.g., 250 mg of panthenol). The aqueous solution can be injected directly into the site of the inflamed joint or outside of the joint as described herein. A program of injections is generally desirable in which dosages similar to that indicated above are given at intervals of a few days (e.g., 2, 3, 4, 5, or 6 days) to about one week. Reduced inflammation and increased freedom of movement is typically noticeable within 48 hours from the initial injection. Using the 1000 mg dose, patients have reported an estimated 80% reduction of pain after the first injection. In certain embodiments, for larger doses (e.g., ≧1000 milligrams), the active ingredient can be provided in two or more closely spaced (e.g., from about 5 minutes to about 1 hour) and smaller doses (e.g., each independently about 400, about 500, or about 600 milligrams)."}, "[1]": {"system": "patients treated for traumatic inflammatory conditions", "assay": "Safety and tolerability from case notes of the 62 patients, Example 1", "description": "62 patients ([…]) aged 21 to 85 years were treated for traumatic inflammatory conditions. The patients were administered one or more intra-articular or peri-articular injections, i.e., into the inflamed joint or nearby area, of dexpanthenol in combination with a long acting local anesthetic [4 ml of an aqueous solution of dexpanthenol Ph Eur (equal to 1 g of dexpanthenol); 1 ml of 0.1% bupivacaine].\nFive (8%) of the 62 patients reported adverse events, including numbness and injection site pain, which resolved with time."}, "[2]": {"system": "patients treated for traumatic inflammatory conditions", "assay": "Pain relief following intra-articular or peri-articular injection, Example 1", "settings": "for Outcome: Improved (%) / Outcome: Improved n / Outcome: No change (%) / Outcome: No change n / Outcome: Not reported (%) / Outcome: Not reported n / Outcome: Temporarily improved (%) / Outcome: Temporarily improved n / Outcome: Worsened (%) / Outcome: Worsened n: 1 g dexpanthenol + 1 ml 0.1% bupivacaine intra- or peri-articular", "description": "62 patients ([…]) aged 21 to 85 years were treated for traumatic inflammatory conditions. The patients were administered one or more intra-articular or peri-articular injections, i.e., into the inflamed joint or nearby area, of dexpanthenol in combination with a long acting local anesthetic [4 ml of an aqueous solution of dexpanthenol Ph Eur (equal to 1 g of dexpanthenol); 1 ml of 0.1% bupivacaine]. In terms of pain relief following injection, efficacy outcome of the treatment is shown in the table below: Injection of facet joints has previously almost invariably been done using MRI to ensure exact placing of the needle. […] By palpating the patient's back in the area of pain and spasm, there is often an area of extreme tenderness about 5 cms from the midline, indicating the site of the inflamed facet joints. If a needle is inserted at right angles into this area, it will be located in or exceedingly close to the facet joint."}, "[3]": {"settings": "of the 62 patients, numbness and injection site pain, resolved with time, with bupivacaine"}, "[4]": {"settings": "Total of all sites of complaint, n 98"}, "[5]": {"settings": "site of complaint Back (post-traumatic spondylitis), n 54"}, "[6]": {"settings": "where outcome reported, cohort of 62 patients, with bupivacaine"}}, "data": [{"compound": "CC(C)(CO)[C@@H](O)C(=O)NCCCO", "note": "[panthenol]", "values": [{"measurement": "reduction of pain reported by patients", "setting": "inflamed joint; 1000 mg dose, after the first injection, estimated", "result": "~80", "unit": "%"}, {"measurement": "time until reduced inflammation and increased freedom of movement is noticeable", "setting": "inflamed joint; from the initial injection, typical doses 500 mg or 1000 mg in aqueous solution", "result": "≤ 48", "unit": "h"}]}, {"compound": "CC(C)(CO)[C@@H](O)C(=O)NCCCO", "note": "[dexpanthenol]", "values": [{"measurement": "safety and tolerability", "setting": "[1]; injections into the joint or nearby area, in combination with bupivacaine, 62 patients", "result": "generally safe and well tolerated"}, {"measurement": "patients who reported adverse events (%)", "setting": "[1]; [3]", "result": 8, "unit": "%"}, {"measurement": "patients who reported adverse events (number)", "setting": "[1]; [3]", "result": "Five"}, {"measurement": "Outcome: Improved (%)", "setting": "[2]; [4]", "result": 50.0, "unit": "%"}, {"measurement": "Outcome: Improved n", "setting": "[2]; [4]", "result": 49, "unit": "n"}, {"measurement": "Outcome: No change (%)", "setting": "[2]; [4]", "result": 10.2, "unit": "%"}, {"measurement": "Outcome: No change n", "setting": "[2]; [4]", "result": 10, "unit": "n"}, {"measurement": "Outcome: Not reported (%)", "setting": "[2]; [4]", "result": 20.4, "unit": "%"}, {"measurement": "Outcome: Not reported n", "setting": "[2]; [4]", "result": 20, "unit": "n"}, {"measurement": "Outcome: Temporarily improved (%)", "setting": "[2]; [4]", "result": 13.2, "unit": "%"}, {"measurement": "Outcome: Temporarily improved n", "setting": "[2]; [4]", "result": 13, "unit": "n"}, {"measurement": "Outcome: Worsened (%)", "setting": "[2]; [4]", "result": 6.1, "unit": "%"}, {"measurement": "Outcome: Worsened n", "setting": "[2]; [4]", "result": 6, "unit": "n"}, {"measurement": "effectiveness of injection adjacent to the facet joint versus directly into the joint", "setting": "[2]; facet joints, injection without MRI", "result": "equally effective"}, {"measurement": "Outcome: Improved (%)", "setting": "[2]; [5]", "result": 55.6, "unit": "%"}, {"measurement": "Outcome: Improved n", "setting": "[2]; [5]", "result": 30, "unit": "n"}, {"measurement": "Outcome: No change (%)", "setting": "[2]; [5]", "result": 11.1, "unit": "%"}, {"measurement": "Outcome: No change n", "setting": "[2]; [5]", "result": 6, "unit": "n"}, {"measurement": "Outcome: Not reported (%)", "setting": "[2]; [5]", "result": 16.7, "unit": "%"}, {"measurement": "Outcome: Not reported n", "setting": "[2]; [5]", "result": 9, "unit": "n"}, {"measurement": "Outcome: Temporarily improved (%)", "setting": "[2]; [5]", "result": 11.1, "unit": "%"}, {"measurement": "Outcome: Temporarily improved n", "setting": "[2]; [5]", "result": 6, "unit": "n"}, {"measurement": "Outcome: Worsened (%)", "setting": "[2]; [5]", "result": 5.6, "unit": "%"}, {"measurement": "Outcome: Worsened n", "setting": "[2]; [5]", "result": 3, "unit": "n"}, {"measurement": "Outcome: Improved (%)", "setting": "[2]; site of complaint Hip, n 22", "result": 40.9, "unit": "%"}, {"measurement": "Outcome: Improved n", "setting": "[2]; site of complaint Hip, n 22", "result": 9, "unit": "n"}, {"measurement": "Outcome: No change (%)", "setting": "[2]; site of complaint Hip, n 22", "result": 9.1, "unit": "%"}, {"measurement": "Outcome: No change n", "setting": "[2]; site of complaint Hip, n 22", "result": 2, "unit": "n"}, {"measurement": "Outcome: Not reported (%)", "setting": "[2]; site of complaint Hip, n 22", "result": 22.7, "unit": "%"}, {"measurement": "Outcome: Not reported n", "setting": "[2]; site of complaint Hip, n 22", "result": 5, "unit": "n"}, {"measurement": "Outcome: Temporarily improved (%)", "setting": "[2]; site of complaint Hip, n 22", "result": 18.2, "unit": "%"}, {"measurement": "Outcome: Temporarily improved n", "setting": "[2]; site of complaint Hip, n 22", "result": 4, "unit": "n"}, {"measurement": "Outcome: Worsened (%)", "setting": "[2]; site of complaint Hip, n 22", "result": 9.1, "unit": "%"}, {"measurement": "Outcome: Worsened n", "setting": "[2]; site of complaint Hip, n 22", "result": 2, "unit": "n"}, {"measurement": "Outcome: Improved (%)", "setting": "[2]; site of complaint Knee, n 8", "result": 62.5, "unit": "%"}, {"measurement": "Outcome: Improved n", "setting": "[2]; site of complaint Knee, n 8", "result": 5, "unit": "n"}, {"measurement": "Outcome: No change (%)", "setting": "[2]; site of complaint Knee, n 8", "result": 12.5, "unit": "%"}, {"measurement": "Outcome: No change n", "setting": "[2]; site of complaint Knee, n 8", "result": 1, "unit": "n"}, {"measurement": "Outcome: Not reported (%)", "setting": "[2]; site of complaint Knee, n 8", "result": 25.0, "unit": "%"}, {"measurement": "Outcome: Not reported n", "setting": "[2]; site of complaint Knee, n 8", "result": 2, "unit": "n"}, {"measurement": "Outcome: Temporarily improved (%)", "setting": "[2]; site of complaint Knee, n 8", "result": "0 (0) %"}, {"measurement": "Outcome: Temporarily improved n", "setting": "[2]; site of complaint Knee, n 8", "result": "0 (0) n"}, {"measurement": "Outcome: Worsened (%)", "setting": "[2]; site of complaint Knee, n 8", "result": "0 (0) %"}, {"measurement": "Outcome: Worsened n", "setting": "[2]; site of complaint Knee, n 8", "result": "0 (0) n"}, {"measurement": "Outcome: Improved (%)", "setting": "[2]; site of complaint Other, n 14", "result": 35.7, "unit": "%"}, {"measurement": "Outcome: Improved n", "setting": "[2]; site of complaint Other, n 14", "result": 5, "unit": "n"}, {"measurement": "Outcome: No change (%)", "setting": "[2]; site of complaint Other, n 14", "result": 7.1, "unit": "%"}, {"measurement": "Outcome: No change n", "setting": "[2]; site of complaint Other, n 14", "result": 1, "unit": "n"}, {"measurement": "Outcome: Not reported (%)", "setting": "[2]; site of complaint Other, n 14", "result": 28.6, "unit": "%"}, {"measurement": "Outcome: Not reported n", "setting": "[2]; site of complaint Other, n 14", "result": 4, "unit": "n"}, {"measurement": "Outcome: Temporarily improved (%)", "setting": "[2]; site of complaint Other, n 14", "result": 21.4, "unit": "%"}, {"measurement": "Outcome: Temporarily improved n", "setting": "[2]; site of complaint Other, n 14", "result": 3, "unit": "n"}, {"measurement": "Outcome: Worsened (%)", "setting": "[2]; site of complaint Other, n 14", "result": 7.1, "unit": "%"}, {"measurement": "Outcome: Worsened n", "setting": "[2]; site of complaint Other, n 14", "result": 1, "unit": "n"}, {"measurement": "patients who said that their condition had worsened", "setting": "[2]; [6]", "result": "less than 10%"}, {"measurement": "share of all patients who benefited from pain relief", "setting": "[2]; [6]", "result": "about three-quarters"}]}]}
